Active and inactive are the calls of the source. The rule behind the calls is not given here. Residues, ends and D or L forms follow the SMILES beside them.
Experiments:
Rattus norvegicus [1] = organism: Rattus norvegicus; test: Prevention of gut microbiota dysbiosis in spontaneously hypertensive male Wistar Kyoto rat model assessed as increase in simpson indices; assay type: functional, organism-based
Rattus norvegicus [2] = test: Antihypertensive activity in spontaneously […] male Wistar Kyoto rat assessed as increase in fecal propionic acid level at 5 mg/kg administered via gavage for 4 weeks and measured at 22 hrs post dose by RP-HPLC analysis relative to control; assay type: functional
Rattus norvegicus [3] = test: Acute antihypertensive activity in spontaneously hypertensive male Wistar Kyoto rat assessed as reduction in diastolic blood pressure at 2.5 mg/kg administered via gavage measured after 6 hrs by tail-artery manometry; assay type: functional
Rattus norvegicus [4] = test: Subacute antihypertensive activity in spontaneously hypertensive male Wistar Kyoto rat assessed as reduction in systolic blood pressure at 5 mg/kg administered via gavage for 4 weeks and measured at 22 hrs post dose by tail-artery manometry; assay type: functional
Rattus norvegicus [5] = organism: Rattus norvegicus; test: Prevention of gut microbiota dysbiosis in spontaneously hypertensive male Wistar Kyoto rat model assessed as fold increase in oscillibacter abundance; assay type: functional
Rattus norvegicus [6] = organism: Rattus norvegicus; test: Prevention of gut microbiota dysbiosis in spontaneously hypertensive male Wistar Kyoto rat model assessed as fold increase in ruminococcaceae UCG-014 abundance; assay type: functional
Rattus norvegicus [7] = organism: Rattus norvegicus; test: Prevention of gut microbiota dysbiosis in spontaneously hypertensive male Wistar Kyoto rat model assessed as decrease in epsilonbacteraeota abundance; assay type: functional, organism-based
[8] = target: T1, Angiotensin-converting enzyme (Homo sapiens, UniProt P12821); test: Binding affinity to ACE (unknown origin) measured at 20 mins
Rattus norvegicus [9] = organism: Rattus norvegicus; test: Prevention of gut microbiota dysbiosis in spontaneously hypertensive male Wistar Kyoto rat model assessed as decrease in streptococcus abundance relative to control; assay type: functional; set-up: scale not given: the % may be the effect or the level left
Rattus norvegicus [10] = test: Acute antihypertensive activity in spontaneously hypertensive male Wistar Kyoto rat assessed as reduction in systolic blood pressure at 2.5 mg/kg administered via gavage measured after 4 hrs by tail-artery manometry; assay type: functional
Rattus norvegicus [11] = test: Effect on spontaneously hypertensive male Wistar Kyoto rat assessed as reduction in Ang II level in serum at 5 mg/kg administered via gavage for 4 weeks and measured at 22 hrs post dose by ELISA; assay type: functional, organism-based
[12] = target: T1, Angiotensin-converting enzyme; test: Inhibition of ACE (unknown origin) preincubated with compound for 5 mins and measured after 60 mins
Rattus norvegicus [13] = organism: Rattus norvegicus; test: Prevention of gut microbiota dysbiosis in spontaneously hypertensive male Wistar Kyoto rat model assessed as fold increase in roseburia abundance; assay type: functional
[14] = target: T1, Angiotensin-converting enzyme; test: Binding affinity to ACE (unknown origin) assessed as dissociation constant by isothermal titration calorimetric analysis
Rattus norvegicus [15] = test: Effect on spontaneously hypertensive male Wistar Kyoto rat assessed as reduction in serum ACE activity by measuring hippuric acid level at 5 mg/kg administered via gavage for 4 weeks and measured at 22 hrs post dose by RP-HPLC analysis; assay type: functional, organism-based
Rattus norvegicus [16] = organism: Rattus norvegicus; test: Prevention of gut microbiota dysbiosis in spontaneously hypertensive male Wistar Kyoto rat model assessed as increase in shannon indices; assay type: functional, organism-based
Rattus norvegicus [17] = organism: Rattus norvegicus; test: Prevention of gut microbiota dysbiosis in spontaneously hypertensive male Wistar Kyoto rat model assessed as increase in bacteroidetes abundance; assay type: functional, organism-based
Rattus norvegicus [18] = organism: Rattus norvegicus; test: Prevention of gut microbiota dysbiosis in spontaneously hypertensive male Wistar Kyoto rat model assessed as fold increase in turicibacter abundance; assay type: functional
Rattus norvegicus [19] = organism: Rattus norvegicus; test: Prevention of gut microbiota dysbiosis in spontaneously hypertensive male Wistar Kyoto rat model assessed as fold increase in lachnospiraceae abundance; assay type: functional
Rattus norvegicus [20] = organism: Rattus norvegicus; test: Prevention of gut microbiota dysbiosis in spontaneously hypertensive male Wistar Kyoto rat model assessed as fold increase in ruminococcaceae abundance; assay type: functional
Rattus norvegicus [21] = test: Subacute antihypertensive activity in spontaneously hypertensive male Wistar Kyoto rat assessed as reduction in systolic blood pressure at 5 mg/kg administered via gavage and measured after 1 week by tail-artery manometry; assay type: functional, organism-based; conditions: time 1.0 weeks
Rattus norvegicus [22] = organism: Rattus norvegicus; test: Prevention of gut microbiota dysbiosis in spontaneously hypertensive male Wistar Kyoto rat model assessed as decrease in parabacteroides abundance relative to control; assay type: functional; set-up: scale not given: the % may be the effect or the level left
[23] = target: T1, Angiotensin-converting enzyme; test: Binding affinity to ACE (unknown origin) assessed as change in enthalpy at 800 to 1400 nM by isothermal titration calorimetric analysis; conditions: dose 800-1400 nM
Rattus norvegicus [24] = test: Subacute antihypertensive activity in spontaneously hypertensive male Wistar Kyoto rat assessed as reduction in diastolic blood pressure at 5 mg/kg administered via gavage and measured after 1 week by tail-artery manometry; assay type: functional, organism-based; conditions: time 1.0 weeks
[25] = target: T1, Angiotensin-converting enzyme; test: Binding affinity to ACE (unknown origin) assessed as change in entropy (-TdeltaS) at 800 to 1400 nM by isothermal titration calorimetric analysis; conditions: dose 800-1400 nM
[26] = target: T1, Angiotensin-converting enzyme; test: Binding affinity to ACE (unknown origin) assessed as change in Gibbs free energy at 800 to 1400 nM by isothermal titration calorimetric analysis; conditions: dose 800-1400 nM
[27] = target: T1, Angiotensin-converting enzyme; test: Binding affinity to ACE (unknown origin) assessed as change in entropy (deltaS) at 800 to 1400 nM by isothermal titration calorimetric analysis; conditions: dose 800-1400 nM
Rattus norvegicus [28] = test: Antihypertensive activity in spontaneously […] male Wistar Kyoto rat assessed as increase in fecal acetic acid level at 5 mg/kg administered via gavage for 4 weeks and measured at 22 hrs post dose by RP-HPLC analysis relative to control; assay type: functional
Rattus norvegicus [29] = organism: Rattus norvegicus; test: Prevention of gut microbiota dysbiosis in spontaneously hypertensive male Wistar Kyoto rat model assessed as increase in enterobacteriaceae abundance relative to control; assay type: functional
Rattus norvegicus [30] = test: Subacute antihypertensive activity in spontaneously hypertensive male Wistar Kyoto rat assessed as reduction in diastolic blood pressure at 5 mg/kg administered via gavage for 4 weeks and measured at 22 hrs post dose by tail-artery manometry; assay type: functional
Rattus norvegicus [31] = organism: Rattus norvegicus; test: Prevention of gut microbiota dysbiosis in spontaneously hypertensive male Wistar Kyoto rat model assessed as fold increase in rikenellaceae abundance; assay type: functional
Rattus norvegicus [32] = test: Antihypertensive activity in spontaneously […] male Wistar Kyoto rat assessed as increase in fecal butyric acid level at 5 mg/kg administered via gavage for 4 weeks and measured at 22 hrs post dose by RP-HPLC analysis relative to control; assay type: functional
Rattus norvegicus [33] = test: Antihypertensive activity in spontaneously hypertensive male rat assessed as reduction in systolic blood pressure at 5 mg/kg, IG measured after 24 hrs by tail-cuff method; assay type: functional
Rattus norvegicus [34] = test: Antihypertensive activity in spontaneously hypertensive male rat assessed as reduction in diastolic blood pressure at 5 mg/kg, IG measured after 24 hrs by tail-cuff method; assay type: functional
[35] = target: T1, Angiotensin-converting enzyme; test: Inhibition of ACE (unknown origin)
[36] = target: T1, Angiotensin-converting enzyme; test: Binding affinity to ACE (unknown origin)
Rattus norvegicus [37] = organism: Rattus norvegicus; test: Prevention of gut microbiota dysbiosis in spontaneously hypertensive male Wistar Kyoto rat model assessed as increase in roseburia abundance; assay type: functional, organism-based
Rattus norvegicus [38] = test: Effect on spontaneously hypertensive male Wistar Kyoto rat assessed as reduction in serum ACE activity by measuring hippuric acid level at 2.5 mg/kg administered via gavage for 4 weeks by RP-HPLC analysis; assay type: functional, organism-based
Rattus norvegicus [39] = test: Acute antihypertensive activity in spontaneously hypertensive male Wistar Kyoto rat assessed as reduction in diastolic blood pressure at 5 mg/kg administered via gavage measured after 2 hrs by tail-artery manometry; assay type: functional
[40] = target: T1, Angiotensin-converting enzyme; test: Binding affinity to ACE (unknown origin) measured within 14 mins
Rattus norvegicus [41] = test: Effect on spontaneously hypertensive male Wistar Kyoto rat assessed as reduction in Ang II level in serum at 2.5 mg/kg administered via gavage for 4 weeks by ELISA; assay type: functional, organism-based
Rattus norvegicus [42] = test: Subacute antihypertensive activity in spontaneously hypertensive male Wistar Kyoto rat assessed as reduction in diastolic blood pressure at 2.5 mg/kg administered via gavage for 4 weeks and measured at 22 hrs post dose by tail-artery manometry; assay type: functional
Rattus norvegicus [43] = test: Subacute antihypertensive activity in spontaneously hypertensive male Wistar Kyoto rat assessed as reduction in systolic blood pressure at 2.5 mg/kg administered via gavage for 4 weeks and measured at 22 hrs post dose by tail-artery manometry; assay type: functional
Rattus norvegicus [44] = test: Acute antihypertensive activity in spontaneously hypertensive male Wistar Kyoto rat assessed as reduction in systolic blood pressure at 5 mg/kg administered via gavage measured after 2 hrs by tail-artery manometry; assay type: functional

T1 sequence (P12821 whole entry): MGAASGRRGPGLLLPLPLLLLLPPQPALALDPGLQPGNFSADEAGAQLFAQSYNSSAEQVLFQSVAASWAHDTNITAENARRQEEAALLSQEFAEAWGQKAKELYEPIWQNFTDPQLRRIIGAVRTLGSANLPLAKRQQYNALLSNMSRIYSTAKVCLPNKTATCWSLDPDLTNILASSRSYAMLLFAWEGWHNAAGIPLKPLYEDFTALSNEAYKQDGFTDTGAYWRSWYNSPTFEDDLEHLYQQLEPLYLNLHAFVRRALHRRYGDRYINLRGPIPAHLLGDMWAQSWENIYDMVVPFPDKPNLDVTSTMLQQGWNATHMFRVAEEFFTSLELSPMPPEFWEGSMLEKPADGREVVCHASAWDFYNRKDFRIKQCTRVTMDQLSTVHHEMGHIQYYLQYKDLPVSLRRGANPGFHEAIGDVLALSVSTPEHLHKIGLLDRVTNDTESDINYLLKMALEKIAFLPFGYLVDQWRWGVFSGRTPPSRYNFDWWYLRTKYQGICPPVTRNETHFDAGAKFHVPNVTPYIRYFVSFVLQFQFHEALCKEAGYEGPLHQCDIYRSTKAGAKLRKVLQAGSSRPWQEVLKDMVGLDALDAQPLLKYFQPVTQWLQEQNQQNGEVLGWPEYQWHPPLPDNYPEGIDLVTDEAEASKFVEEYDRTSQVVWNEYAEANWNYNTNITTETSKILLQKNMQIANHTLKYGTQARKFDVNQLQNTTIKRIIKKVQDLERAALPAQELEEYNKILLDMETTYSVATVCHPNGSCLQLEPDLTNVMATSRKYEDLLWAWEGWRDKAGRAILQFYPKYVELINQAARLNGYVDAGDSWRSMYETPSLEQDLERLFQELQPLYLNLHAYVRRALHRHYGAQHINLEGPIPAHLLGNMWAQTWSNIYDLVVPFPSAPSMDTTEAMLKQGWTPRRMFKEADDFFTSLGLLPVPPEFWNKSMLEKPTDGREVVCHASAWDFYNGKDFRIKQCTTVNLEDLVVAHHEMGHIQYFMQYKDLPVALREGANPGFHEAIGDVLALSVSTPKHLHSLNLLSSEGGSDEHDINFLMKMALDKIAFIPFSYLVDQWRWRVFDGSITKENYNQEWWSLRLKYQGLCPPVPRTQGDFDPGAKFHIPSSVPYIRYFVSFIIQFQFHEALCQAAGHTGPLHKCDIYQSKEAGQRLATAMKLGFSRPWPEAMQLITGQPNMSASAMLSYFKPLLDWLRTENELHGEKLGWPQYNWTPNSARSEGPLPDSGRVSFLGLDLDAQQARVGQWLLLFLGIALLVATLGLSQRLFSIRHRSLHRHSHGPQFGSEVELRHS

C[C@H](NC(=O)[C@@H](N)CCCCN)C(=O)N[C@@H](CCCCN)C(=O)N[C@@H](Cc1c[nH]c2ccccc12)C(=O)O (H-KAKW-OH)
Activity (Rattus norvegicus [1]): Active
Activity (Rattus norvegicus [2]): 105%
Activity (Rattus norvegicus [3]): 18 mmHg
Activity (Rattus norvegicus [4]): 11 mmHg
fold change (FC) (Rattus norvegicus [5]): 2.6
fold change (FC) (Rattus norvegicus [6]): 1.8
Activity (Rattus norvegicus [7]): Active
Activity [8]: Active
Activity (Rattus norvegicus [9]): 43%
Activity (Rattus norvegicus [10]): 20 mmHg
Activity (Rattus norvegicus [11]): Active
IC50 [12]: 2.02 µM
fold change (FC) (Rattus norvegicus [13]): 2
Kd [14]: 0.0577 µM
Activity (Rattus norvegicus [15]): Active
Activity (Rattus norvegicus [16]): Active
Activity (Rattus norvegicus [17]): Active
fold change (FC) (Rattus norvegicus [18]): 2.3
fold change (FC) (Rattus norvegicus [19]): 1.5
fold change (FC) (Rattus norvegicus [20]): 4.4
Activity (Rattus norvegicus [21]): Active
Activity (Rattus norvegicus [22]): 44%
deltaH [23]: -8.31 kcal/mol
Activity (Rattus norvegicus [24]): Active
-TdeltaS [25]: -1.57 kcal/mol
deltaG [26]: -9.88 kcal/mol
deltaS [27]: 5.28 cal/mol.K
Activity (Rattus norvegicus [28]): 28%
Activity (Rattus norvegicus [29]): 85%
Activity (Rattus norvegicus [30]): 12 mmHg
fold change (FC) (Rattus norvegicus [31]): 4.4
Activity (Rattus norvegicus [32]): 45%

C[C@H](NC(=O)[C@@H](N)CCCCN)C(=O)N1CCC[C@H]1C(=O)N[C@@H](CCCCN)C(=O)O (H-KAPK-OH)
IC50 [12]: 1450 µM

CC(C)C[C@H](NC(=O)[C@H](CO)NC(=O)[C@@H](NC(=O)CNC(=O)CNC(=O)[C@H](Cc1ccc(O)cc1)NC(=O)CNC(=O)[C@@H](N)CCCCN)C(C)C)C(=O)N1CCC[C@H]1C(=O)N[C@@H](CCC(=O)O)C(=O)N[C@@H](Cc1c[nH]c2ccccc12)C(=O)O (H-KGYGGVSLPEW-OH)
Activity (Rattus norvegicus [33]): 20 mmHg
Activity (Rattus norvegicus [34]): 27 mmHg

CC(C)C[C@H](NC(=O)[C@H](Cc1c[nH]c2ccccc12)NC(=O)[C@@H](N)CCCCN)C(=O)N1CCC[C@H]1C(=O)O (H-KWLP-OH)
IC50 [35]: 5 µM

CC(C)C[C@H](N)C(=O)N[C@@H](C)C(=O)N1CCC[C@H]1C(=O)N[C@@H](Cc1ccc(O)cc1)C(=O)N[C@@H](Cc1c[nH]c2ccccc12)C(=O)O (H-LAPYW-OH)
IC50 [36]: 5.42 µM

C[C@H](NC(=O)[C@@H](N)CCCCN)C(=O)N[C@@H](CCCCN)C(=O)O (H-Lys-Ala-Lys-OH)
IC50 [12]: 1860 µM

CC(C)C[C@H](NC(=O)CNC(=O)[C@H](CCC(=O)O)NC(=O)[C@@H]1CCCN1C(=O)[C@@H](N)C(C)C)C(=O)N[C@@H](CC(N)=O)C(=O)N[C@@H](CO)C(=O)N[C@@H](Cc1c[nH]c2ccccc12)C(=O)N1CCC[C@H]1C(=O)N[C@@H](Cc1ccccc1)C(=O)O (H-VPEGLNSWPF-OH)
IC50 [12]: 73.3 µM

CC(C)C[C@H](NC(=O)[C@H](Cc1c[nH]c2ccccc12)NC(=O)[C@H](CCCCN)NC(=O)[C@H](Cc1ccccc1)NC(=O)[C@@H]1CCCN1C(=O)[C@H](CC(N)=O)NC(=O)[C@@H](NC(=O)[C@@H](NC(=O)[C@@H](N)C(C)C)[C@@H](C)O)C(C)C)C(=O)N1CCC[C@H]1C(=O)O (H-VTVNPFKWLP-OH)
IC50 [35]: 5.5 µM

NCCCC[C@H](N[C@@H](CCc1ccccc1)C(=O)O)C(=O)N1CCC[C@H]1C(=O)O [LISINOPRIL ANHYDROUS]
Activity (Rattus norvegicus [37]): inactive
Activity (Rattus norvegicus [2]): inactive
Activity (Rattus norvegicus [38]): Active
Activity (Rattus norvegicus [39]): 28 mmHg
Activity (Rattus norvegicus [7]): Active
Activity [40]: Active
Activity (Rattus norvegicus [41]): Active
Activity (Rattus norvegicus [42]): 32 mmHg
Activity (Rattus norvegicus [17]): Active
deltaH [23]: -3.21 kcal/mol
-TdeltaS [25]: -7.21 kcal/mol
deltaS [27]: 24.2 cal/mol.K
Activity (Rattus norvegicus [28]): inactive
Activity (Rattus norvegicus [29]): 76%
Activity (Rattus norvegicus [43]): 39 mmHg
Activity (Rattus norvegicus [44]): 33 mmHg
Activity (Rattus norvegicus [32]): inactive
